Ten compounds from ChEMBL document CHEMBL1909046, “DrugMatrix in vitro pharmacology data” can be followed below.

One assay addresses Mu-type opioid receptor (Homo sapiens, UniProt P35372). Briefly: DRUGMATRIX: Opiate mu (OP3, MOP) radioligand binding (ligand: [3H] Diprenorphine). The format is cell membranes, CHO-K1, Membrane. Particulars: cho-k1; Not Active = under 50% inhibition at 10 µM.
Assay [1] addresses Sodium-dependent dopamine transporter (Homo sapiens, UniProt Q01959). In words: DRUGMATRIX: Dopamine Transporter radioligand binding (ligand: [125I] RTI-55). Particulars: Not Active = under 50% inhibition at 10 µM; for Ki: read-out: Ki. The class given is cell membranes, CHO-K1, Membrane.
The target of assay [2] is T1, Alpha-2A adrenergic receptor (Homo sapiens, UniProt P08913). Further: in other assays of this panel Not Active means under 50% inhibition at 10 µM.
T1 sequence (P08913 whole entry): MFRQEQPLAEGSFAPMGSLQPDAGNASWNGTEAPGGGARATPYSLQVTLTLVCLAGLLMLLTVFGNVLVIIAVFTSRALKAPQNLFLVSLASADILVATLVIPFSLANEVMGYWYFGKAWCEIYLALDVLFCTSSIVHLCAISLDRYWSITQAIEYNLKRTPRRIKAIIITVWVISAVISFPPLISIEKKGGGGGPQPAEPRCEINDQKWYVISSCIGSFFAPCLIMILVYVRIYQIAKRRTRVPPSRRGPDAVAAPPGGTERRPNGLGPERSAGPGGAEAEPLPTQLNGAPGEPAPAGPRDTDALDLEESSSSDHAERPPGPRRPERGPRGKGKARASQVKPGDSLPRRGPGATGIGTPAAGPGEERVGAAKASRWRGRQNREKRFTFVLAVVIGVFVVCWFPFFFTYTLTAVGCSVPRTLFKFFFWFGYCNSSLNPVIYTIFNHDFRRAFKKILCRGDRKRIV
The format is cell membranes, Sf9, Membrane. The following applies: for Ki: read-out: Ki.

The nature of assay [3]: DRUGMATRIX: Interleukin IL-1 radioligand binding (ligand: [125I] interleukin 1beta). The format is cell membranes, Membrane. The following applies: nih3t3; Not Active = under 50% inhibition at 10 µM.
In assay [4] the target is Kappa-type opioid receptor (Homo sapiens, UniProt P41145). Briefly: DRUGMATRIX: Opiate kappa (OP2, KOP) radioligand binding (ligand: [3H] Diprenorphine). The format is cell membranes, HEK293, Membrane. The following applies: Not Active = under 50% inhibition at 10 µM.
The next assay has as its target Histamine H2 receptor (Homo sapiens, UniProt P25021). The format is cell membranes, CHO-K1, Membrane. The following applies: cho-k1. Further: in other assays of this panel Not Active means under 50% inhibition at 10 µM.

Sequence of Mu-type opioid receptor (P35372 whole entry): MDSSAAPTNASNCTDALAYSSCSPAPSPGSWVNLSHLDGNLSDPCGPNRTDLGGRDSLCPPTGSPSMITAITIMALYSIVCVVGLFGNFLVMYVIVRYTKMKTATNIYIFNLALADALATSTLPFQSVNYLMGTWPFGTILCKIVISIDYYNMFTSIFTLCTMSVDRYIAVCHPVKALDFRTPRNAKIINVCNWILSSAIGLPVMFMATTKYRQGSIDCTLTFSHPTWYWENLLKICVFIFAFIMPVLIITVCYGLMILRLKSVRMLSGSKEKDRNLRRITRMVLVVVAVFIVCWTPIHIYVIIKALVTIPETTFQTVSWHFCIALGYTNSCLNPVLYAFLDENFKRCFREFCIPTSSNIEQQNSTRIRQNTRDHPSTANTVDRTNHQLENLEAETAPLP
Sequence of Kappa-type opioid receptor (P41145 whole entry): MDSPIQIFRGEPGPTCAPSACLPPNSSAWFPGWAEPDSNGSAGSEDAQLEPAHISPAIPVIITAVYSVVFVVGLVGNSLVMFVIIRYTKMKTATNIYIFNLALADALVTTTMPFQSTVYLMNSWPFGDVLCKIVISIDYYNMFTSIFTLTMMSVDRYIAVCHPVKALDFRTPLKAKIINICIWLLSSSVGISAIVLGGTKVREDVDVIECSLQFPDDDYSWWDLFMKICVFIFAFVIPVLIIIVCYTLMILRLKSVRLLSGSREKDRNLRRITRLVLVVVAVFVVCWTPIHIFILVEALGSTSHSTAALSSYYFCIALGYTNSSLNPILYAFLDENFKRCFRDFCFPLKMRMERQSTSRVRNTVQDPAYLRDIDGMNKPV
Sequence of Histamine H2 receptor (P25021 whole entry): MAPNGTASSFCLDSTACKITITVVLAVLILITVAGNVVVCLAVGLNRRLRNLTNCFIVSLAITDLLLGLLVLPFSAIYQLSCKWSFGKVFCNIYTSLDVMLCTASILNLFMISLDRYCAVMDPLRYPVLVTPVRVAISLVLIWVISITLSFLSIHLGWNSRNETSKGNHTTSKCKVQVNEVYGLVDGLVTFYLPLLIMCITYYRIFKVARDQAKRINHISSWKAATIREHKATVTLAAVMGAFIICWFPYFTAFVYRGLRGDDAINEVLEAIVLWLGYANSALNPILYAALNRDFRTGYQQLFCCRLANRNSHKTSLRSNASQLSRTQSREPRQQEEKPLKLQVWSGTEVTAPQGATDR
Sequence of Sodium-dependent dopamine transporter (Q01959 whole entry): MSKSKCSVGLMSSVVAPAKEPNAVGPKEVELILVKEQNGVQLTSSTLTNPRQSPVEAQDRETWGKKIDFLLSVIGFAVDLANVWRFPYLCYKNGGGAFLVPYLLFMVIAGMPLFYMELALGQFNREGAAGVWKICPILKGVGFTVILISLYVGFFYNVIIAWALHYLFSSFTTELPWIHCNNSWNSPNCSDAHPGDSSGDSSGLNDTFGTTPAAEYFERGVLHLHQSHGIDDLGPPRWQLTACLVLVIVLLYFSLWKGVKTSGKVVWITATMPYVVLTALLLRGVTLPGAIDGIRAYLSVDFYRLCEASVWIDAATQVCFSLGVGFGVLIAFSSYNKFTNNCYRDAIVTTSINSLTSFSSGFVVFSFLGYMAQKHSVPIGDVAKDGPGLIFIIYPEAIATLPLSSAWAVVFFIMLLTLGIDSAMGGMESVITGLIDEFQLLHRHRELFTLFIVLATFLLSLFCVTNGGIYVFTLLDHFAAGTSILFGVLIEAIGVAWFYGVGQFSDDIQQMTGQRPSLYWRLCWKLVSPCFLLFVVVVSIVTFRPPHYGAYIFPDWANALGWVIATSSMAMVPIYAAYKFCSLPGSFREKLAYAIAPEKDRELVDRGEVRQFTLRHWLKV

`O=c1[nH]c2ccccc2c2ccccc12`: the concentration for half-maximal inhibition (IC50) entry (at Mu-type opioid receptor; in assay [1] (cho-k1); in assay [2] (sf9); in assay [3]; in assay [4] (hek293); against Histamine H2 receptor) was “Not Active” each time. In assay [3], the Ki (in general, the equilibrium dissociation constant of an inhibitor or competing ligand from its target) was “Not Active”.
As for `COc1ccc(C[C@H](N)C(=O)N[C@H]2[C@@H](O)[C@H](n3cnc4c(N(C)C)ncnc43)O[C@@H]2CO)cc1` [PUROMYCIN], the IC50 entry (on Mu-type opioid receptor; in assay [1] (cho-k1); in assay [2] (sf9); in assay [3]; in assay [4] (hek293); against Histamine H2 receptor) was “Not Active” in each case. In addition, in assay [3], the Ki result is “Not Active”.
Turning to `NC(=O)NC(=O)Cc1ccccc1` [PHENACEMIDE], the IC50 entry (on Mu-type opioid receptor; in assay [1] (cho-k1); in assay [2] (sf9); in assay [3]; in assay [4] (hek293); against Histamine H2 receptor) was “Not Active” in each case. Further, the inhibition constant Ki result in assay [3] was “Not Active”.
On to `COc1ccccc1OCCNCC(O)COc1cccc2[nH]c3ccccc3c12` (configuration not stated) [CARVEDILOL], for which the IC50 (as a rule, the point on the concentration scale where inhibition reaches its midpoint) on Mu-type opioid receptor was “Not Active”; in assay [1] (read-out: IC50) it was 845 nM; in assay [2] (read-out: IC50) it was 106 nM; in assay [3] it was “Not Active”; in assay [4] (hek293) it was “Not Active”; against Histamine H2 receptor, “Not Active”. In addition, the Ki in assay [1] was 671 nM; in assay [2] it was 40 nM; in assay [3], “Not Active”.
`CC(N)Cc1c[nH]c2ccc(OCc3cccs3)cc12` (configuration not stated) [BW-723C86]: the IC50 entry at Mu-type opioid receptor is “Not Active”; in assay [1] (read-out: IC50) it was 2680 nM; in assay [2] (sf9), “Not Active”; in assay [3] it was “Not Active”; in assay [4] (hek293) it was “Not Active”; on Histamine H2 receptor, “Not Active”. For the same compound, the Ki in assay [1] was 2130 nM; in assay [3], “Not Active”.
Turning to `c1ccc2c(c1)Nc1ccccc1S2` [PHENOTHIAZINE], the IC50 entry is “Not Active” at Mu-type opioid receptor; 18600 nM in assay [1] (read-out: IC50); “Not Active” in assay [2] (sf9); “Not Active” in assay [3]; “Not Active” in assay [4] (hek293); “Not Active” at Histamine H2 receptor. Also, the values for the inhibition constant Ki in assay [1] and in assay [3] were 14800 nM and “Not Active”, respectively.
For `CCO` [ALCOHOL], the IC50 result (on Mu-type opioid receptor; in assay [1] (cho-k1); in assay [2] (sf9); in assay [3]; in assay [4] (hek293); against Histamine H2 receptor) was “Not Active” each time. The Ki entry in assay [3] is given as “Not Active”.
Consider `Clc1cc(Cl)c(OCC#CI)cc1Cl` [HALOPROGIN], for which the half-inhibitory concentration (IC50) entry is “Not Active” at Mu-type opioid receptor; 1970 nM in assay [1] (read-out: IC50); 1220 nM in assay [2] (read-out: IC50); “Not Active” in assay [3]; 1150 nM in assay [4] (read-out: IC50); “Not Active” against Histamine H2 receptor. Further, the Ki in assay [1] is 1560 nM; in assay [2] it was 458 nM; in assay [3], “Not Active”; in assay [4], 459 nM.
On to `OC[C@H]1OC2C3[C@@H](CO)OC(O[C@H]4[C@H](O)[C@@H](O)[C@@H](O[C@H]5[C@H](O)[C@@H](O)[C@@H](O[C@H]6[C@H](O)[C@@H](O)[C@@H](O[C@H]7[C@H](O)[C@@H](O)[C@@H](O[C@H]8[C@H](O)[C@@H](O)[C@@H](O[C@H]9[C@H](O)[C@@H](O)C(OC1[C@H](O)[C@H]2O)O[C@@H]9CO)O[C@@H]8CO)O[C@@H]7CO)O[C@@H]6CO)O[C@@H]5CO)O[C@@H]4CO)[C@H](O)[C@H]3O`, for which the half-inhibitory concentration (IC50) entry (at Mu-type opioid receptor; in assay [1] (cho-k1); in assay [2] (sf9); in assay [3]; in assay [4] (hek293); against Histamine H2 receptor) was “Not Active” each time. Further, the Ki result in assay [3] is on record as “Not Active”.
With `Nc1ccc(C(=O)O)c(O)c1` [AMINOSALICYLIC ACID], the IC50 entry (on Mu-type opioid receptor; in assay [1] (cho-k1); in assay [2] (sf9); in assay [3]; in assay [4] (hek293); against Histamine H2 receptor) was “Not Active” throughout. Further, the Ki entry in assay [3] is reported as “Not Active”.
